Consider 15 molecules from patent publication US20130231472A1, “USE OF MOLECULAR MARKERS FOR THE PRECLINICAL PROFILING OF INHIBITORS OF ENZYMES HAVING HISTONE DEACETYLASE ACTIVITY” (priority 2002, published 2013).

Data set [1] relates to HDAC-2. Nature of the data set: HDAC-2 protein levels in HEK293T cells (Westernblot). It counts as cell-based, human. The following applies: for effect of protease inhibitor on control or VPA-repressed HDAC-2 protein levels: 24 h with or without VPA, FIG. 9A; for effect of proteasome inhibitor on VPA-induced degradation of HDAC-2: co-treatment with VPA, inhibitor added 4 h before harvest, FIG. 9B. As for the experimental part: (§1) FIG. 6: (A) F9 teratocarcinoma or HEK293T embryonic kidney cells were exposed for indicated times to 1 mM VPA. Protein levels of HDAC-2 and HDACs 1 or 3 for reference (HDAC8; N-CoR and Sin3 as data not shown) were determined by Westernblot analysis. […] (C) The effect of other HDAC inhibitors on the amount of HDAC-2 protein was determined by using TSA (100 nM) in a time course analysis in F9 cells (left panel). The HDAC inhibitors TSA (100 nM), trapoxin (TPX, 10 nM), butyrate (1.5 mM) or MS275 (5 μM) were tested at a single time of exposure in HEK293T cells (right panel).
FIG. 9: (A) HEK293T cells were treated for 24 h with VPA or left untreated. The cell penetrating protease inhibitors pepstatin A, leupeptin, or ALLM were added as indicated at the time of VPA addition. (B) Proteasome inhibitors ALLN or MG-132 were added at the indicated concentrations 4 h before cells were harvested. Protein levels of HDAC-2 were determined by Westernblot analysis.

In data set [2] the test system is HDAC-2. The experiment in a line: Ubiquitinated proteins in anti HDAC-2 immune precipitates (Westernblot against ubiquitin). To be noted: VPA 1.5 mM, 24 h; ALLN 5 μM; FIG. 10A. It is filed as cell-based. From the text: FIG. 10: (A) The total amount of high molecular weight poly-ubiquitinated protein was not altered by VPA treatment of cells (left two lanes). The presence of ubiquitinated proteins in anti HDAC-2 immune precipitates is shown in the right part of the panel. […] Ubiquitinated proteins in the precipitates were detected by Western blot analysis. For lane N a non-immune serum was used instead of the anti HDAC-2 antibody. (B) The presence of mono- and/or oligo-ubiquitinated HDAC-2 upon VPA treatment of HEK293T cells was determined by ectopic expression of His6-tagged ubiquitin followed by VPA-treatment for 36 h as indicated. The proteasome inhibitor MG-132 was added 4 h prior to analysis to enhance the accumulation of ubiquitinated proteins. Electrophoretic mobility and unaltered presence of non-ubiquitinated HDAC-2 were determined by Westernblot analysis of whole cell extracts (left panel). […] Anti-HDAC-2 immuno-reactive bands with the expected mobility of mono- or poly-ubiquitinated HDAC-2 are indicated by a bracket.

In another data set the test system is RLIM. The experiment in a line: RLIM protein levels in HEK293T cells (Westernblot). It counts as cell-based, human. The following applies: 24 hours. As for the experimental part: FIG. 12 (A) RLIM protein levels were determined by Westernblot analysis after treatment of HEK293T cells for 24 hours with the HDAC inhibitors VPA (0.5, 1.5, or 5 mM), TSA (30, 100 or 300 nM) or a combination of VPA (1.5 mM) and TSA (100 nM). Actin protein levels are shown as a control for equal loading. (B) RLIM protein levels were determined by Westernblot analysis after treatment of HEK293T cells for 24 hours with the HDAC inhibitor TSA (100 nM), the proteasome inhibitor ALLN (2.5 μM) or a combination of both. Actin protein levels are shown as a control for equal loading.

Data set [3] relates to stage III/IV non-small cell lung cancer. To be noted: monotherapy, phase II; cited from earlier work.
Data set [4] relates to HDAC-2. The experiment in a line: HDAC-2 protein levels in F9 teratocarcinoma cells (Westernblot). It counts as cell-based, murine. As for the experimental part: as §1
For the next data set, the system named is F9 cells. The experiment in a line: Toxicity in F9 cells (cell loss, actin loading control). It is filed as cell-based, murine. To be noted: 48 h TSA (100 nM). As for the experimental part:
as §1

In the next data set the test system is T-cell lymphomas. To be noted: phase II; cited from earlier work.
For the next data set, the system named is TRAIL. Nature of the data set: TRAIL expression in spleen after in vivo treatment (RNAse protection assay). The arrangement: species or system mice. To be noted: leukemic mice; 96 hours of retinoic acid treatment (21-day-release pellet, 5 mg RA); FIG. 4A.
The next data set concerns HDACs. Nature of the data set: Inhibition of HDACs. It is filed as biochemical.
The next data set has as its system PML-RAR leukemia. To be noted: one PML-RAR patient with multiple relapses after retinoic acid; cited from earlier work.
[5] abbreviates: HEK293T cells, VPA 1 mM, TSA 100 nM, trapoxin 10 nM, butyrate 1.5 mM, MS275 5 μM.

Square brackets hold non-standard residues; d marks the D form. Peptide text beside a SMILES is read from it. * marks the point of attachment. Aoe = N[C@@H](CCCCCC(=O)[C@@H]1CO1)C(=O)O; Sta = CC(C)C[C@H](N)[C@@H](O)CC(=O)O; Isovaleryl = CC(C)CC(=O)*; Nle = CCCC[C@H](N)C(=O)O; Cbz = O=C(OCc1ccccc1)*

Sequence of HDAC-4 (P56524 whole entry): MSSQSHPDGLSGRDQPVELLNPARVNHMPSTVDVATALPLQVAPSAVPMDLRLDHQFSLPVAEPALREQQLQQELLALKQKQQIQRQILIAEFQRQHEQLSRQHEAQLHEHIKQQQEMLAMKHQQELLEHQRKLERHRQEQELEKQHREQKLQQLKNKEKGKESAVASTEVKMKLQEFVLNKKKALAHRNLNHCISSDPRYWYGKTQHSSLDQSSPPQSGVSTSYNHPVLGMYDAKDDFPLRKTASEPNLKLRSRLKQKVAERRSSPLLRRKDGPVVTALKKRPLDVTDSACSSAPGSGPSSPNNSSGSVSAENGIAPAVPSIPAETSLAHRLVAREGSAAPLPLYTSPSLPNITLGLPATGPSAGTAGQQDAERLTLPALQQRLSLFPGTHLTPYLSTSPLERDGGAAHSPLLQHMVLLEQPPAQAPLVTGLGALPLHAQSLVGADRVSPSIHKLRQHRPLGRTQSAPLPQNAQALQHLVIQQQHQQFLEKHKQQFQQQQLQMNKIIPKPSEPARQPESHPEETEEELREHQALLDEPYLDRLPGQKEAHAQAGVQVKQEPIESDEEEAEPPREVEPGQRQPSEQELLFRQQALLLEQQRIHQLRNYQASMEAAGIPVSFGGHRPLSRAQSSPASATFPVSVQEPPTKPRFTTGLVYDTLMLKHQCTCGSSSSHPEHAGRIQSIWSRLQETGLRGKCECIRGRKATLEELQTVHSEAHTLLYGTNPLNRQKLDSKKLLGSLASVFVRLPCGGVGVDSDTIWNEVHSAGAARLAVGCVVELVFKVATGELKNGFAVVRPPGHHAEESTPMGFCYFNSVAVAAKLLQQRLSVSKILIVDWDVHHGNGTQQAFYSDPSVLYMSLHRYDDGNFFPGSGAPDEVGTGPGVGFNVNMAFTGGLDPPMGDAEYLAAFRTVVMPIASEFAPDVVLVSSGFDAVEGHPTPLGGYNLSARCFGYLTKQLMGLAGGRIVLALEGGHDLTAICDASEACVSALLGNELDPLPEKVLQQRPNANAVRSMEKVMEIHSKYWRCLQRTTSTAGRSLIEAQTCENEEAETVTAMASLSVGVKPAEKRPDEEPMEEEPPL
Experimental for TRAIL: Leukemic mice or healthy mice (Ctrl) were then treated with placebo (lanes 1, 3), VPA (400 mg/kg every 12 hours), all-trans retinoic acid (a 21-day-release pellet containing 5 mg RA or placebo: lanes 8-9), and VPA plus retinoic acid (lanes 10-11). Mice were sacrificed 18 hours (lanes 4-5), or 36 hours after beginning of treatment (lanes 3, 6-7, 10-11): total RNAs were collected from the spleens (with a >75% invasion of leukemic blasts as assessed by Giemsa staining) and analyzed by RNAse protection assay to check for expression of TRAIL.

On to `CSCC[C@@H](C=O)NC(=O)[C@H](CC(C)C)NC(=O)[C@H](CC(C)C)NC(C)=O` [ALLM] (Ac-Leu-Leu-Met-aldehyde), for which, in the data set with HDAC-2 [1] (HEK293T cells), the “effect of protease inhibitor on control or VPA-repressed HDAC-2 protein levels” value (from here on “effect of protease inhibitor”) was “Neither of the protease inhibitors pepstatin A, leupeptin or ALLM had an effect”.
Consider `CCCC[C@@H](C=O)NC(=O)[C@H](CC(C)C)NC(=O)[C@H](CC(C)C)NC(C)=O` [ALLN] (Ac-Leu-Leu-[Nle]-aldehyde), for which, in the data set with HDAC-2 [1] (HEK293T cells), the “effect of proteasome inhibitor on VPA-induced degradation of HDAC-2” value is “abolished VPA-induces degradation of HDAC-2 completely”. Further, the “amount of ubiquitinated protein precipitated with antibody against HDAC-2” value in the data set with HDAC-2 [2] was “increase the amount of this anti-ubiquitin reactive protein”. The “block of TSA-induced proteosomal degradation of RLIM” value in the data set with RLIM (TSA 100 nM plus ALLN 2.5 μM, FIG. 12B) is given as “can be blocked”.
For the molecule `CCCC(=O)O` [Butyrate, butyric acid], the HDAC-2 protein levels result in the data set with HDAC-2 [1] (setting [5]) is “Reduction of HDAC-2 protein levels”.
Take `CC(C)C[C@@H](C=O)NC(=O)[C@H](CC(C)C)NC(=O)[C@H](CC(C)C)NC(=O)OCc1ccccc1` [MG-132] (Cbz-Leu-Leu-Leu-aldehyde): the “effect of proteasome inhibitor on VPA-induced degradation of HDAC-2” value with HDAC-2 [1] (HEK293T cells) is on record as “abolished VPA-induces degradation of HDAC-2 completely”.
Consider `CCCC(=O)OCOC(=O)C(C)(C)C` [Pivanex], for which the clinical activity result in data set [3] is recorded as “demonstrating activity in stage III/IV non-small cell lung cancer”.
For the molecule `CC(/C=C/C(=O)NO)=C\[C@@H](C)C(=O)c1ccc(N(C)C)cc1` [TSA, trichostatin A], the HDAC-2 protein levels result with HDAC-2 [4] and in the data set with HDAC-2 [1] was “does not reduce HDAC-2 levels” in each case. Further, the “toxicity (cell loss, reduction in actin loading control)” value with F9 cells is on record as “toxic”. Also, in the data set on HDAC-2 [2], the “amount of ubiquitinated protein precipitated with antibody against HDAC-2” value was “no effect”. In addition, the “RLIM protein levels / degradation” value in the data set with RLIM (VPA 0.5, 1.5 or 5 mM, TSA 30, 100 or 300 nM, FIG. 12) is “induce an enhanced proteosomal degradation of the E3 ligase RLIM”.
Consider `C/C=C1\NC(=O)[C@H]2CSSCC/C=C/[C@H](CC(=O)N[C@H](C(C)C)C(=O)N2)OC(=O)[C@H](C(C)C)NC1=O` [depsipeptide], for which the clinical outcome in the data set on T-cell lymphomas is “used successfully”.
For the molecule `CC(=O)N[C@@H](CC(C)C)C(=O)N[C@@H](CC(C)C)C(=O)N[C@H](C=O)CCCNC(=N)N` [leupeptin], the “effect of protease inhibitor” value in the data set on HDAC-2 [1] (HEK293T cells) is “Neither of the protease inhibitors pepstatin A, leupeptin or ALLM had an effect”.
For `CC(C)CC(=O)N[C@H](C(=O)N[C@H](C(=O)N[C@@H](CC(C)C)[C@@H](O)CC(=O)N[C@@H](C)C(=O)N[C@@H](CC(C)C)[C@@H](O)CC(=O)O)C(C)C)C(C)C` [pepstatin A] (Isovaleryl-VV[Sta]A[Sta]-OH), in the data set with HDAC-2 [1] (HEK293T cells), the “effect of protease inhibitor” value is given as “Neither of the protease inhibitors pepstatin A, leupeptin or ALLM had an effect”.
Take `CC1=C(/C=C/C(C)=C/C=C/C(C)=C/C(=O)O)C(C)(C)CCC1` [retinoic acid, all-trans retinoic acid]: the “TRAIL expression in spleen” value in the data set with TRAIL is recorded as “as strongly as upon 96 hours of retinoic acid treatment”.
For `O=C1N[C@@H](Cc2ccccc2)C(=O)N2CCC[C@@H]2C(=O)N[C@@H](CCCCCC(=O)[C@@H]2CO2)C(=O)N[C@H]1Cc1ccccc1` [trapoxin] (cyclo(FF[dP][Aoe])), the HDAC-2 protein levels entry in the data set with HDAC-2 [1] (setting [5]) is listed as “Neither the cyclic tetrapeptide HDAC inhibitor trapoxin nor the anilide-based HDAC inhibitor MS-275 induces reduction of HDAC-2 protein levels”.
`CCCC(CCC)C(N)=O` [valpromide]: the HDAC-2 protein levels entry with HDAC-2 [1] (cell line and concentration not stated) is on record as “does not affect HDAC-2 protein levels”. Also, in the data set on HDACs, the HDAC inhibition entry is reported as “does not inhibit HDACs”.
Take MS-275: the HDAC-2 protein levels result with HDAC-2 [1] (setting [5]) is listed as “Neither the cyclic tetrapeptide HDAC inhibitor trapoxin nor the anilide-based HDAC inhibitor MS-275 induces reduction of HDAC-2 protein levels”.
For phenylbutyrate, in the data set on PML-RAR leukemia, the “clinical response of leukemia” value is on record as “complete remission of the leukemia”.

B1: E3 ubiquitin ligase RLIM (protein)
chain: MENSDSNDKGSGDQSAAQRRSQMDRLDREEAFYQFVNNLSEEDYRLMRDNNLLGTPGESTEEELLRRLQQIKEGPPPQNSDENRGGDSSDDVSNGDSIIDWLNSVRQTGNTTRSGQRGNQSWRAVCRTNPNSGNFRFSLEINVYSNNGSQNSENENEPSARRSSGENVENNSQRQVENPRSESTSARPSRSERNSTEALTEVPPTRGQRRARSRSPDHRRTRARAERSRSPLHPMSEIPRRSHHSISSQTFEHPLVNETEGSSRTRHHVTLRQQISGPELLSRGLFAASGTRNASQGAGSSDTAASGESTGSGQRPPTIVLDLQVRRVRPGEYRQRDSIASRTRSRSQTPNNTVTYESERGGFRRTFSRSERAGVRTYVSTIRIPIRRILNTGLSETTSVAIQTMLRQIMTGFGELSYFMYSDSDSEPTGSVSNRNMERAESRSGRGGSGGGSSSGSSSSSSSSSSSSSSSSSSSSPSSSSGGESSETSSDLFEGSNEGSSSSGSSGARREGRHRAPVTFDESGSLPFLSLAQFFLLNEDDDDQPRGLTKEQIDNLAMRSFGENDALKTCSVCITEYTEGNKLRKLPCSHEYHVHCIDRWLSENSTCPICRRAVLASGNRESVV
Regarding B1, the “in vitro ubiquitination (Ubc8 as E2, RLIM as E3)” value with HDAC-4 is “the class II HDAC-4 are substrates for Ubc8/RLIM”.
